# Reference: ChEMBL document CHEMBL5725589, “Heterocyclic compounds as PI3K-γ inhibitors” (2018)
# Tests used:
# [1] = biological target: Tyrosine-protein kinase JAK1 (Homo sapiens, UniProt P23458); assay: In Vitro JAK Kinase Assay: Compounds herein were tested for inhibitory activity of JAK targets according to the following in vitro assay described in Park et al., Analytical Biochemistry 1999, 269, 94-104. The catalytic domains of human JAK1 (a.a. 837-1142), JAK2 (a.a. 828-1132) and JAK3 (a.a. 781-1124) were expressed using baculovirus in insect cells and purified. The catalytic activity of JAK1 …
# Chain of Tyrosine-protein kinase JAK1 (P23458 whole entry, the tested form may be a part, canonical isoform): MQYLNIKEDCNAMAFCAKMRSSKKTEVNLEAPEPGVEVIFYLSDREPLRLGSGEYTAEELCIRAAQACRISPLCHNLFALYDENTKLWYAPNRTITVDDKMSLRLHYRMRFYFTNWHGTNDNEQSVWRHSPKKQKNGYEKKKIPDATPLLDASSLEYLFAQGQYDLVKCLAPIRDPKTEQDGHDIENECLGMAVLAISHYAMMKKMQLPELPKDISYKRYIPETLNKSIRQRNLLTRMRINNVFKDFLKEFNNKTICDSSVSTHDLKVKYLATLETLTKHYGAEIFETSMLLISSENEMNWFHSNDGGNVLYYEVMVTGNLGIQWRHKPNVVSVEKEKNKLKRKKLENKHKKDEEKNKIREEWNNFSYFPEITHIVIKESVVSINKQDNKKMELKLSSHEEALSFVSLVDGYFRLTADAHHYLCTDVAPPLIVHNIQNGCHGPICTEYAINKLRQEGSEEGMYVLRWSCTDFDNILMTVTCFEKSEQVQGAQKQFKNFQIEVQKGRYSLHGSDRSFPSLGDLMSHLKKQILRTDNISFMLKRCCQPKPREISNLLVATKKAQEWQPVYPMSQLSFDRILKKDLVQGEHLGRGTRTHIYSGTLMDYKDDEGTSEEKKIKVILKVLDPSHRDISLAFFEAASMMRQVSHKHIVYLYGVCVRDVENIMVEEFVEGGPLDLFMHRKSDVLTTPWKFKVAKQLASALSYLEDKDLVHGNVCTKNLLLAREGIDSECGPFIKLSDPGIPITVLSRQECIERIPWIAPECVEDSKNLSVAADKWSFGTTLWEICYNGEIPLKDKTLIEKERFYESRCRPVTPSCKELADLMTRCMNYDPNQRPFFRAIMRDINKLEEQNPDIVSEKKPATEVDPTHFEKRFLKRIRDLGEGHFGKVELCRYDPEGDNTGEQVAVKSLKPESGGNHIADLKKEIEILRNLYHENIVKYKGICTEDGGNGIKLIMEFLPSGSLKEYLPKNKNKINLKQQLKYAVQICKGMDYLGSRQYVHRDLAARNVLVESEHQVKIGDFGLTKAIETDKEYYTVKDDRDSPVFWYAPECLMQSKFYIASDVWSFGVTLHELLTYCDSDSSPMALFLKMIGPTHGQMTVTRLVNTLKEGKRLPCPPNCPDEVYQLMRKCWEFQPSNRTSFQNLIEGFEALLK
# [2] = biological target: Phosphatidylinositol 4,5-bisphosphate 3-kinase catalytic subunit gamma isoform (Homo sapiens, UniProt P48736); assay: PI3Kγ (p110γ) Recombinant Human Protein was purchased from Life technology (Grand Island, N.Y.). […] The final concentration of DMSO in the assay was 2%. […] ATP, 13 nM PI3Kγ. […] The final concentration of SPA beads is 1.0 mg/mL.
# Chain of Phosphatidylinositol 4,5-bisphosphate 3-kinase catalytic subunit gamma isoform (P48736 whole entry, canonical isoform): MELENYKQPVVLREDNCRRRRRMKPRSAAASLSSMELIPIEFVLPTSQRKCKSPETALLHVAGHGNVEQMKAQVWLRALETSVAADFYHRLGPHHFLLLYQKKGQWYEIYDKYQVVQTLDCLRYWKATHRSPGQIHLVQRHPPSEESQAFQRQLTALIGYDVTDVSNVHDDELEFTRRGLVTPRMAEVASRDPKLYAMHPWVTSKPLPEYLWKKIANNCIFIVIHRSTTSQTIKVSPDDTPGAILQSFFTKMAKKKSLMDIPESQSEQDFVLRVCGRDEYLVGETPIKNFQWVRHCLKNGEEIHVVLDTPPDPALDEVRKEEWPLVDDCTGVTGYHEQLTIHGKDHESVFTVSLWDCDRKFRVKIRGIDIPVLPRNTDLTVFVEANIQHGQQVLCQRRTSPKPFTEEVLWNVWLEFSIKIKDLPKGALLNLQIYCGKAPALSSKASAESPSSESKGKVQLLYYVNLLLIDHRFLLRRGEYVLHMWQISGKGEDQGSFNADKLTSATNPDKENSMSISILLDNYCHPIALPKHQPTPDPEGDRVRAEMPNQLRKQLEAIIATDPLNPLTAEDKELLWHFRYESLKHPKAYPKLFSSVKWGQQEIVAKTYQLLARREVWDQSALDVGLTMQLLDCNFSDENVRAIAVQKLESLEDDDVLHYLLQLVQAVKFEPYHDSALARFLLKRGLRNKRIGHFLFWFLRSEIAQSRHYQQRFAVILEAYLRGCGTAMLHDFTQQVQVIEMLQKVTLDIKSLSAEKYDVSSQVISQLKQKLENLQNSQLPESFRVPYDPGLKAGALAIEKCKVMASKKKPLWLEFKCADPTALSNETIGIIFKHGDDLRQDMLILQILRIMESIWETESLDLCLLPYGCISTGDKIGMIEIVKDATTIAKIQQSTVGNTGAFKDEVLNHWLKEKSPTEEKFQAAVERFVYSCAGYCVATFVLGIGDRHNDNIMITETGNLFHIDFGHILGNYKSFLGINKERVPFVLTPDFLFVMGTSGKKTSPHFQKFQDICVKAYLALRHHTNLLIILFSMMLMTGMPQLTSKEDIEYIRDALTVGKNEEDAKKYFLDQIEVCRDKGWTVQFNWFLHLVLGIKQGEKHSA
# [3] = biological target: T1, Phosphatidylinositol 4,5-bisphosphate 3-kinase catalytic subunit delta isoform (Homo sapiens, UniProt O00329); assay: PI3Kδ (p110δ/p85α) Recombinant Human Protein was purchased from Eurofins (St Charles, Mo.). […] The final concentration of DMSO in the assay was 2%. […] ATP, 3.4 nM PI3Kδ. […] The final concentration of SPA beads is 1.0 mg/mL.
# T1 sequence (O00329 whole entry): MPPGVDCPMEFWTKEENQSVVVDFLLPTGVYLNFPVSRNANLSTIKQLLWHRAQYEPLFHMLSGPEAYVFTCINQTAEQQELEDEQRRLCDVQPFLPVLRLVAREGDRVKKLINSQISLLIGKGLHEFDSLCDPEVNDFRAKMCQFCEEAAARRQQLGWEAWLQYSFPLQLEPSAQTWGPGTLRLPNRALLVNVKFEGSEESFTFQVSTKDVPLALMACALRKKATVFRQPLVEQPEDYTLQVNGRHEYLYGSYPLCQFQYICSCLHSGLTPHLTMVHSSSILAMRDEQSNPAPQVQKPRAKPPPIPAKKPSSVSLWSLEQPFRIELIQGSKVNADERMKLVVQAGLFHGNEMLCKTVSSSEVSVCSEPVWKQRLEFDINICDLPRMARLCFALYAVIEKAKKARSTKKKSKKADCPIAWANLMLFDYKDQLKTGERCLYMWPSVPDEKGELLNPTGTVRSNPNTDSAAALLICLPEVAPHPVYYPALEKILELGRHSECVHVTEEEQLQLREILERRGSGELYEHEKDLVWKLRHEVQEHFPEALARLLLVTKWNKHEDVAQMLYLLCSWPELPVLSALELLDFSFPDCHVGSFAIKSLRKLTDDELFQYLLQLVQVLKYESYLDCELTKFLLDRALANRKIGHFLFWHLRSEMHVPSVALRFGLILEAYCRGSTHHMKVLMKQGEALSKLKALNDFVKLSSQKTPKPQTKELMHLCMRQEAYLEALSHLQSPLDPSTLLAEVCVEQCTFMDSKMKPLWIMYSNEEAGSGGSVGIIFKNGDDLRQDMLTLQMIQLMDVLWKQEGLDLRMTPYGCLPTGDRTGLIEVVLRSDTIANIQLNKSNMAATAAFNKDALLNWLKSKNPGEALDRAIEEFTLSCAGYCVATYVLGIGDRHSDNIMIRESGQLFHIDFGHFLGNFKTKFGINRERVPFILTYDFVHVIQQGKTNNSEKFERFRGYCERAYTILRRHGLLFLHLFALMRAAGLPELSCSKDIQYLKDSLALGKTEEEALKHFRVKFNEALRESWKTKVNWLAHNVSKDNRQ
SMILES,IC50 [1],IC50 [2],IC50 [3]
"N#CCC1(n2cc(-c3ncnc4[nH]ccc34)cn2)CN([C@H]2CC[C@@H](Oc3cc(CN4CC[C@H](O)C4)cc(C(F)(F)F)n3)CC2)C1 (single isomer, unassigned)",< 100 nM,,
N#CCC1(n2cc(-c3ncnc4[nH]ccc34)cn2)CN(C2CCN(C(=O)c3ccnc(C(F)(F)F)c3F)CC2)C1 [ITACITINIB],< 100 nM,,
CC(NC(=O)c1c(N)nn2cccnc12)c1cc(Cl)c2cn[nH]c2c1-c1ccccc1 (centres undefined),,< 100 nM,< 500 nM
CC(NC(=O)c1c(N)nn2cccnc12)c1cc(Cl)c2cn(CC(=O)N3CCOCC3)nc2c1-c1ccccc1 (centres undefined),,< 500 nM,< 500 nM
Cc1cc(C(C)NC(=O)c2c(N)nn3cccnc23)c(-c2ccccc2)c2[nH]nc(C)c12 (centres undefined),,< 500 nM,< 2000 nM
N#CC[C@]1(n2cc(-c3ncnc4[nH]ccc34)cn2)C[C@H](N2CCN(C(=O)c3ccnc(C(F)(F)F)n3)CC2)C1,< 100 nM,,
N#CC[C@]1(n2cc(-c3ncnc4[nH]ccc34)cn2)C[C@H](N2CCC(Oc3cc(CN4CCC[C@H]4CO)cc(C(F)(F)F)n3)CC2)C1,< 100 nM,,
N#CC[C@]1(n2cc(-c3ncnc4[nH]ccc34)cn2)C[C@H](N2CCC(Oc3cc(CN4CC(O)C4)cc(C(F)(F)F)n3)CC2)C1,< 100 nM,,
Cc1ncc2c(Cl)cc(C(C)NC(=O)c3c(N)nn4cccnc34)c(-c3cccc(F)c3)n12 (centres undefined),,< 100 nM,< 100 nM
N#CC[C@]1(n2cc(-c3ncnc4[nH]ccc34)cn2)C[C@H](N2CCC(Oc3cc(CN4CCC[C@@H]4CO)cc(C(F)(F)F)n3)CC2)C1,< 100 nM,,
N#CCC1(n2cc(-c3ncnc4[nH]ccc34)cn2)CN(C2CCN(C(=O)c3ccnc(C(F)(F)F)n3)CC2)C1,< 100 nM,,
Cc1cc(C(C)NC(=O)c2c(N)nn3cccnc23)c(-c2cccc(F)c2)n2c(C)ncc12 (centres undefined),,< 100 nM,< 2000 nM
C[C@@H](O)c1nc2cnc3ccsc3c2n1[C@H]1CC[C@H](CC#N)OC1,< 500 nM,,
N#CC[C@]1(n2cc(-c3ncnc4[nH]ccc34)cn2)C[C@H](N2CCC(Oc3cc(CCO)cc(C(F)(F)F)n3)CC2)C1,< 100 nM,,
CC(C)(O)c1cc(O[C@H]2CC[C@@H](N3CC(CC#N)(n4cc(-c5ncnc6[nH]ccc56)cn4)C3)CC2)nc(C(F)(F)F)c1,< 100 nM,,
N#CCC(CN1CCN(C(=O)c2ccc(C#N)cc2F)CC1)n1ccc(-c2ncnc3[nH]ccc23)c1 (centres undefined),< 100 nM,,
CC(NC(=O)c1c(N)nn2cccnc12)c1cc(Cl)c2cncn2c1-c1ccccc1 (centres undefined),,< 100 nM,< 100 nM

SMILES,IC50 [1],IC50 [2],IC50 [3]
C[C@@H](O)CNCc1cc(OC2CCN([C@H]3C[C@](CC#N)(n4cc(-c5ncnc6[nH]ccc56)cn4)C3)CC2)nc(C(F)(F)F)c1,< 100 nM,,
CC(NC(=O)c1c(N)nn2cccnc12)c1cc(C#N)c2cncn2c1-c1ccccc1 (centres undefined),,< 500 nM,< 500 nM
CCOc1c(C(C)NC(=O)c2c(N)nn3cccnc23)cc(Cl)c2cn(C)nc12 (centres undefined),,< 500 nM,< 500 nM
CCNCc1cc(O[C@H]2CC[C@@H](N3CC(CC#N)(n4cc(-c5ncnc6[nH]ccc56)cn4)C3)CC2)nc(C(F)(F)F)c1,< 100 nM,,
Cc1n[nH]c2c(-c3ccccc3)c(C(C)NC(=O)c3c(N)nn4cccnc34)cc(Cl)c12 (centres undefined),,< 100 nM,< 500 nM
C[C@H](NC(=O)c1cc(F)c(N2CC(CC#N)(n3cc(-c4ncnc5[nH]ccc45)cn3)C2)cc1F)C(F)(F)F,< 100 nM,,
CC(NC(=O)c1c(N)nn2cccnc12)c1cc(Cl)c2cn(Cc3ccn(C)n3)nc2c1-c1ccccc1 (centres undefined),,< 500 nM,< 2000 nM
CC(NC(=O)c1c(N)nn2cccnc12)c1cc(Cl)c2cnn(CCN3CCOCC3)c2c1-c1ccccc1 (centres undefined),,< 100 nM,< 100 nM
N#CCC(C1CCN(c2nc3cccnc3o2)C1)n1cc(-c2ncnc3[nH]ccc23)cn1 (centres undefined),< 100 nM,,
N#CCC1(n2cc(-c3ncnc4[nH]ccc34)cn2)CN([C@H]2CC[C@@H](Oc3cc(CCO)nc(C(F)(F)F)n3)CC2)C1,< 100 nM,,
CCOc1c(C(C)NC(=O)c2c(N)nn3cccnc23)cc(Cl)c2cnn(C)c12 (centres undefined),,< 100 nM,< 100 nM
CCOc1c(C(C)NC(=O)c2c(N)nn3cccnc23)cc(Cl)c2cn(CC)nc12 (centres undefined),,< 500 nM,< 2000 nM
C[C@@H](CO)NCc1cc(OC2CCN([C@H]3C[C@](CC#N)(n4cc(-c5ncnc6[nH]ccc56)cn4)C3)CC2)nc(C(F)(F)F)c1,< 100 nM,,
N#CCC1(n2cc(-c3ncnc4[nH]ccc34)cn2)CN(C2CCN(C(=O)Nc3ccc(F)cc3C(F)(F)F)CC2)C1,< 100 nM,,
CCCC(NC(=O)c1c(N)nn2cccnc12)c1cc(Cl)c2cncn2c1N1CCS(=O)(=O)CC1 (centres undefined),,< 100 nM,< 100 nM
N#CCC1(n2cc(-c3ncnc4[nH]ccc34)cn2)CN([C@H]2CC[C@@H](Oc3cc(CN4CC[C@@H](O)C4)cc(C(F)(F)F)n3)CC2)C1,< 100 nM,,
CC(NC(=O)c1c(N)nn2cccnc12)c1cc(Cl)c2c(Br)n[nH]c2c1-c1ccccc1 (centres undefined),,< 100 nM,< 2000 nM
